Assay results taken from patent US12655458B2, “Methods for cyclization of (poly)peptides comprising nγ-hydroxy- or Nγ-amino-L-asparagine” (priority 2021, dated 2026).
Entries after “also recorded” stand apart in the source; their conditions may differ. Like-named read-outs stand apart in the source and are kept apart here. Starred links: 1 amine or outer side, 2 acyl side, 3 side chain; linkers in the order of their positions; H or OH if unused. Positions of bridges follow the written chain, without caps; N, C: chain ends. Non-standard residues stand in square brackets, D forms with d. Residues, ends and D or L forms follow the SMILES beside them. No end group written: not given here. *: point of attachment. N(NH2) = N-gamma-amino-L-asparagine, O=C(C[C@H](N[*:1])C(=O)[*:2])NN[*:3]; N(OH) = N-hydroxy-L-asparagine, O=C(C[C@H](N[*:1])C(=O)[*:2])NO; NHOH = ON*

Experiments:
[1] = Stability in human serum by HPLC analysis; format: in vitro ADME; conditions: 37° C.
Method: Peptides were mixed with human serum to a final concentration of 100 μM and incubated at 37° C. Aliquots of the sample were taken out at different time points and 10% TFA was added to quench all protease activities, followed by addition of 10% of DMSO. The solution mixture was centrifuged (11,000 g, 5 min, 4° C.) and the supernatant was analysed by RP-HPLC (15% buffer B-65% buffer B in 25 min) and ESI-MS. The quantity of the remaining peptides was determined by comparing their HPLC peak area with the initial peak area.

MMP2 = molecular target: T1, MMP2 (Homo sapiens, UniProt P08253); assay: MMPs inhibition assay (FRET substrate), MMP2; format: biochemical
T1 construct: purchased Sigma-Aldrich
T1 sequence (P08253 110-660): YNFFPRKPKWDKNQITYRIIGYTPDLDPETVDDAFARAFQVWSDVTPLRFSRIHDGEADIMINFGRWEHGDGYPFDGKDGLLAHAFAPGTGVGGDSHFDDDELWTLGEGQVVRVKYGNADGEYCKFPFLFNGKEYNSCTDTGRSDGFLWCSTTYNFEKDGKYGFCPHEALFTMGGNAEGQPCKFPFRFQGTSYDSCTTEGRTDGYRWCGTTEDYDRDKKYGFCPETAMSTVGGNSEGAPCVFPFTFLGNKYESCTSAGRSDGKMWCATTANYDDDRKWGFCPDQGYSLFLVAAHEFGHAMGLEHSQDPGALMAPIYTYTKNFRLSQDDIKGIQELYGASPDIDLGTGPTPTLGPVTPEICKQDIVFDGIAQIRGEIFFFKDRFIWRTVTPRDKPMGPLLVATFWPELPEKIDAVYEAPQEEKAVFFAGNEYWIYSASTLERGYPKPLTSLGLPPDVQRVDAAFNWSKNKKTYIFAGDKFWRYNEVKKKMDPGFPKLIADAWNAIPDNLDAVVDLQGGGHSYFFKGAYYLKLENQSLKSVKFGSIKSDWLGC
Method: The inhibitory activity of the peptides was determined by measuring the MMPs' protease activity towards a FRET substrate. 0.8 nM MMP2 or MMP9 (Sigma-Aldrich), 10 μM substrate (FAM-Lys-Pro-Leu-Gly-Leu-Lys(Dabcyl)-Ala-Arg-NH2, λex 490 nm; λem 520 nm) and various concentrations of the peptides (0.0001 μM-10 μM or 0.001 μM-100 μM) were used. The reactions were performed in 50 mM Tris-HCl buffer (pH 7.5) containing 150 mM NaCl, 10 mM CaCl2, 0.05% Brij35, at 37° C. MMP2 was pre-incubated with the peptide inhibitors for 10 min before adding the substrate. All the numbers were input into GraphPad Prism (GraphPad Software, San Diego) for IC50 calculation.

butelase-1 [2] = assay: Kinetics of peptide cyclization by butelase-1; format: biochemical, Clitoria ternatea; conditions: for Kcat / Km: cyclization by butelase-1, 37° C., PBS pH 6.5
Sequence of butelase-1 (as listed by the source): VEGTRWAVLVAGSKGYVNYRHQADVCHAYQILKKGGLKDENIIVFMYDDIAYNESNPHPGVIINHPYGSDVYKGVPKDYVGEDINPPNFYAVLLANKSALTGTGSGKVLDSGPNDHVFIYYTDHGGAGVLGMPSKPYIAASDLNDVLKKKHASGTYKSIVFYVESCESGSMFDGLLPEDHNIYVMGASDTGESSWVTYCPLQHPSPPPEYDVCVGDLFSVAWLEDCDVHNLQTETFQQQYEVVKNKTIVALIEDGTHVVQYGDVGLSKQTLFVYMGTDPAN
Method: (§1) Enzyme-meditated cyclization and ligation reactions were performed in 20 mM PBS buffer (pH 6.5) at 37° C. with 0.5 mM TCEP. The reaction was quenched by adding 20% TFA. The enzyme concentration was determined by the absorbance at 280 nm using Nanodrop. The reactions were monitored by reverse-phase analytical HPLC, and the products were characterized by MALDI-MS or ESI-MS.
(§2) Model peptides (1-6, see Table 51) were used in the kinetic studies. The cyclization reaction was performed in 20 mM PBS buffer (pH 6.5) containing 0.5 mM TCEP, at 37° C. The reaction was monitored by analytical RP-HPLC (5% buffer B-45% buffer B in 20 min). Kinetic constants for these peptides were obtained from the initial reaction rates. To ensure that the measurement of reaction rate was in the range of the initial velocity, the reaction was quenched using 20% TFA, when less than 25% of the substrate has been converted. Each recorded value is an average of measurements in triplicate. All the numbers were input into GraphPad Prism (GraphPad Software, San Diego) to obtain the Michaelis-Menten curve and calculate the kinetic parameters (kcat and Km).
Plant flowers of Clitoria ternatea grown in the Nanyang Technological University Herb Garden were collected. Butelase-1 was extracted using a chromatography method described previously.^5 Purified butelase-1 was obtained and stored at 4° C. or −80° C. in 50 mM sodium phosphate buffer (pH 6.0) containing 1 mM EDTA, 5 mM β-mercaptoethanol, 0.01% Tween 20 and 20% sucrose.

[3] = enzyme bond, 37.0 °C
butelase-1 [4] = assay: Inhibitory activity assay of AN(Me)12-HV 7 on butelase-1 cyclization of pB1 peptide; format: biochemical, Clitoria ternatea; conditions: 200 μM pB1, 0.001 eq butelase-1, pH 6.5, 37° C., 10 min; increasing concentration of peptide 7
Method: FIG. 7. Inhibitory activity assay of AN(Me)12-HV 7. (a) RP-HPLC trace for cyclization of pB1 peptide ([…]; SEQ ID NO:13). The cyclization reaction was performed at 37° C. in the present of 200 μM of peptide substrates and 0.001 eq of butelase-1 in 20 mM PBS (pH 6.5) for 10 min. The reactions were monitored by RP-HPLC. The cyclic peptide is labelled as c[pB1] and starred HPLC peak is the potentially inhibitory peptide AN(Me)12-HV 7. […] (b) MALDI profiles of pB1 and AN(Me)12-HV 7 before and after treatment with butelase-1.
as §1

butelase 1 = assay: Butelase 1-mediated inter-peptide ligation with acyl acceptor GIRGI; format: biochemical, Clitoria ternatea; conditions: 400 uM peptide, 3.2 mM GIRGI, 0.01 eq butelase 1, pH 6.5, room temperature
Method: The reaction was conducted using 400 uM of Ac-KYSN(NH2)GL and 3.2 mM of GIRGI (8 eq) in the presence of 0.01 eq butelase 1 in 20 mM PBS buffer (pH 6.5) at room temperature. The ligation product was obtained in >80% yield in 1 h (FIG. 28, lower panel). The fact that Asn(NH2) can be recognized by butelase 1 as a P1 residue for inter-peptide ligation indicates it can also be used to mediate peptide cyclization (FIG. 27).

VyPAL2 = assay: Kinetics of peptide cyclization by VyPAL2; format: biochemical; conditions: for Kcat / Km: cyclization by VyPAL2, 37° C., PBS pH 6.5
Sequence of VyPAL2 (as listed by the source): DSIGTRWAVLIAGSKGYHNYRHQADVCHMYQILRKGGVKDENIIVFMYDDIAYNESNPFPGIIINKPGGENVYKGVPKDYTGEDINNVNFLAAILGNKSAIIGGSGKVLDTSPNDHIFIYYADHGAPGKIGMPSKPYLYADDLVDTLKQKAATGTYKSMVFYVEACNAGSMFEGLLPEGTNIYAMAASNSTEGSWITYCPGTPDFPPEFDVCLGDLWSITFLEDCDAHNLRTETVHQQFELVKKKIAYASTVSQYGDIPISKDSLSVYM
Method: as §1, §2
VyPAL2 was expressed using sf9 insect cells as described previously (Hemu et al. PNAS, 2019, 116, 11737-11746). 100 mL of the viral vector containing VyPAL2 gene was used to infect sf9 cells at cell density of 2.5×10^6 cells/mL. MOI for infection was set between 1-10 for protein expression. The culture was incubated at 27° C. shaker for 3 days (72 hours) at 135 rpm. Protein purification was performed in three steps: Immobilized Metal Affinity Chromatography (IMAC), Ion-Exchange Chromatography (IEX), and Size-Exclusion chromatography (SEC). Pro-VyPAL2 was activated at pH 5 in 50 mM sodium citrate buffer (0.1 M NaCl, 1 mM DTT, 0.5 mM LS) for 2-3 h at 37° C. After activation, the activated enzyme was purified by SEC at pH 6.5 (20 mM PBS, 0.1 M NaCl, 1 mM DTT).

[5] = the molecule shown is the open-chain precursor, 102-membered ring, butelase-1 (0.01 eq), 20 mM PBS pH 6.5, 0.4 mM

CC[C@H](C)[C@@H]1NC(=O)[C@@H]2CSSC[C@H](NC(=O)[C@H](CC(=O)NO)NC(=O)[C@@H]3CSSC[C@H](NC1=O)C(=O)N[C@@H]([C@@H](C)O)C(=O)N[C@@H]([C@@H](C)CC)C(=O)N[C@@H](CO)C(=O)N[C@@H](Cc1ccc(O)cc1)C(=O)N3)C(=O)N[C@@H](CC(C)C)C(=O)N[C@H]1CSSC[C@H](NC(=O)[C@H](C(C)C)NC(=O)CNC(=O)[C@H](CCCNC(=N)N)NC(=O)[C@H](CCCNC(=N)N)NC1=O)C(=O)N[C@@H](CCCNC(=N)N)C(=O)N2 [Peptide 17] (cyclo(CD(NHOH)CLCRRGVCRCICTISY); disulfide 1-14, 3-12, 5-10 (inferred); ring closure inferred)
stability in human serum ([1]; after 16 h): remained intact | Ki (MMP2): 2.8 nM | better MMP2 binding affinity than Asn-RTD-1 19 (MMP2): 13 fold | better MMP2 binding affinity than Asp-RTD-1 18 (MMP2): 2.3 fold | improvement of MMP2 Ki over linear Asn(OH)-APP-IP peptide 9 (MMP2): 8.2 fold | more potent towards MMP2 than MMP9 (selectivity) (MMP2; MMP2 over MMP9): about 1000 fold

AIYRRGRLYRRN(OH)HV (AIYRRGRLYRR[N(OH)]HV-NH2) [Peptide 2]
catalytic efficiency of butelase-1, fold higher than DHV peptide 3 (butelase-1 [2]): 48 fold | catalytic efficiency of butelase-1, fold lower than NHV peptide 1 (butelase-1 [2]): ~6 fold | Kcat (butelase-1 [2]): 3.46 ± 0.27 s⁻¹ | Km (butelase-1 [2]): 98.8 ± 17.8 µM

H-Gly-Leu-Pro-Val-Cys-Gly-Glu-Thr-Cys-Phe-Gly-Gly-Thr-Cys-Asn-Thr-Pro-Gly-Cys-Ser-Cys-Thr-Trp-Pro-Ile-Cys-Thr-Arg-Asp-Ile-Val-NH2?
ring closure, conversion ([3]; the molecule shown is the open-chain precursor, 87-membered ring, butelase-1 (0.01 eq), 20 mM PBS pH 6.5, 0.4 mM): 0%

AIYRRGRLYRRN(Me) HV [Peptide 7]
inhibition of butelase-1 cyclization of pB1 peptide (butelase-1 [4]): nor did it inhibit the cyclization; also recorded: didn't affect the cyclization rate of pB1 | recognition by butelase-1 as substrate for cyclization (butelase-1 [2]): not recognized

H-Gly-Gly-Val-Cys-Pro-Lys-Ile-Leu-Lys-Lys-Cys-Arg-Arg-Asp-Ser-Asp-Cys-Pro-Gly-Ala-Cys-Ile-Cys-Arg-Gly-Asn-Gly-Tyr-Cys-Gly-Ser-Gly-Ser-Asp-Ile-Val-NH2?
ring closure, conversion [3, 5]: 0%

Ac-KYSN(NH2)GL (Ac-KYS[N(NH2)]GL-NH2; SMILES CC(=O)N[C@@H](CCCCN)C(=O)N[C@@H](Cc1ccc(O)cc1)C(=O)N[C@@H](CO)C(=O)N[C@@H](CC(=O)NN)C(=O)NCC(=O)N[C@@H](CC(C)C)C(N)=O)
acyl donor substrate in butelase 1-mediated ligation (butelase 1): good acyl donor substrate

CC[C@H](C)[C@H](N)C(=O)N[C@@H](CO)C(=O)N[C@@H](Cc1ccc(O)cc1)C(=O)NCC(=O)N[C@@H](CC(N)=O)C(=O)N[C@@H](CC(=O)NO)C(=O)N[C@@H](C)C(=O)N[C@@H](CC(C)C)C(=O)N[C@@H](CCSC)C(=O)N1CCC[C@H]1C(N)=O [Peptide 9, ISYGNN(OH)ALMP] (H-ISYGND(NHOH)ALMP-NH2)
improvement of MMP2 inhibitory activity over APP-IP 8 (MMP2; replacement of Asp by Asn(OH)): 2.6 fold

AIYRRGRLYRRDHV [Peptide 3]
Kcat (butelase-1 [2]): 0.454 ± 0.02 s⁻¹ | Km (butelase-1 [2]): 630 ± 19.5 µM

H-Gly-Gly-Val-Cys-Pro-Lys-Ile-Leu-Lys-Lys-Cys-Arg-Arg-Asp-Ser-Asp-Cys-Pro-Gly-Ala-Cys-Ile-Cys-Arg-Gly-Asn-Gly-Tyr-Cys-Gly-Ser-Gly-Ser-Asn(OH)-Ile-Val-NH2?
ring closure, conversion [3, 5]: 95%

cyclo[SYCN(OH)CLCRRGVCRCICTI]
ring closure, conversion ([3]; 54-membered ring, butelase-1 (0.04 eq), PBS pH 6.5, 0.1 mM): 60%

AIYRRGRLYRRDSL [Peptide 6]
Kcat (VyPAL2): 0.581 ± 0.09 s⁻¹ | Km (VyPAL2): 2070 ± 407 µM

H-Gly-Arg-Cys-Thr-Lys-Ser-Ile-Pro-Pro-Ile-Cys-Phe-Pro-Asp-Ile-Val-NH2?
ring closure, conversion ([3]; the molecule shown is the open-chain precursor, 42-membered ring, butelase-1 (0.01 eq), 20 mM PBS pH 6.5, 0.4 mM): 0%

AIYRRGRLYRRNHV [Peptide 1]
Kcat (butelase-1 [2]): 14.86 ± 0.34 s⁻¹ | Km (butelase-1 [2]): 67.5 ± 2.8 µM

CC[C@H](C)[C@@H]1NC(=O)[C@H](CO)NC(=O)CNC(=O)[C@@H]2CCCN2C(=O)[C@H](CCSC)NC(=O)[C@H](CC(C)C)NC(=O)[C@H](C)NC(=O)[C@H](CC(=O)NO)NC(=O)[C@H](CCC(N)=O)NC(=O)CNC(=O)[C@H](Cc2ccc(O)cc2)NC(=O)[C@H](CO)NC1=O [Peptide 11, cyclo[SISYGQN(OH)ALMPG]] (cyclo(ALMPGSISYGQD(NHOH)))
IC50 (MMP2; APP-IP-derived peptides, 0.8 nM MMP2, 10 μM substrate, pH 7.5, 37° C., read-out: IC50 towards MMP2): > 100000 nM | Ki (MMP2; APP-IP-derived peptides, Ki=IC50/(1+[S]o/Km), read-out: Ki towards MMP2): > 100000 nM

AIYRRGRLYRRN(OH)SL (AIYRRGRLYRR[N(OH)]SL-NH2) [Peptide 5]
catalytic efficiency of VyPAL2, fold higher than DSL peptide 6 (VyPAL2): 28 fold | catalytic efficiency of VyPAL2, fold lower than NSL peptide 4 (VyPAL2): ~14 fold | Kcat (VyPAL2): 0.942 ± 0.082 s⁻¹ | Km (VyPAL2): 120 ± 19.2 µM

c[FLaRGN(OH)FLaRGN(OH)]
ring closure, conversion ([3]; 36-membered ring, butelase-1 (0.01 eq), 20 mM PBS pH 6.5, 0.4 mM): 90%

ISYGNDALMP-NH2 [Peptide 8, reference compound]
metabolised at 32 min, 100 μM ([1]; in 32 min, read-out: degradation in human serum): > 50% | Ki (MMP2): 60 nM

AIYRRGRLYRRNSL [Peptide 4]
Kcat (VyPAL2): 4.56 ± 0.24 s⁻¹ | Km (VyPAL2): 42.5 ± 8.83 µM
